Like-named read-outs stand apart in the source and are kept apart here.
Tests used:
[1] = target: T1, C-domain of rabbit lung ACE (Oryctolagus cuniculus, UniProt P12822); test: ACE domain-specific inhibition, C-domain (FRET substrate Abz-LFK(Dnp)-OH); assay type: biochemical; conditions: for Inhibition (%) ± SD, C-Domain: Abz-LFK(Dnp)-OH [S] = 21 μM
T1 construct: on the C- and N-domain of a rabbit lung ACE using the FRET substrates; from tissue; host or cells: rabbit lung
T1 sequence (P12822 34-1310): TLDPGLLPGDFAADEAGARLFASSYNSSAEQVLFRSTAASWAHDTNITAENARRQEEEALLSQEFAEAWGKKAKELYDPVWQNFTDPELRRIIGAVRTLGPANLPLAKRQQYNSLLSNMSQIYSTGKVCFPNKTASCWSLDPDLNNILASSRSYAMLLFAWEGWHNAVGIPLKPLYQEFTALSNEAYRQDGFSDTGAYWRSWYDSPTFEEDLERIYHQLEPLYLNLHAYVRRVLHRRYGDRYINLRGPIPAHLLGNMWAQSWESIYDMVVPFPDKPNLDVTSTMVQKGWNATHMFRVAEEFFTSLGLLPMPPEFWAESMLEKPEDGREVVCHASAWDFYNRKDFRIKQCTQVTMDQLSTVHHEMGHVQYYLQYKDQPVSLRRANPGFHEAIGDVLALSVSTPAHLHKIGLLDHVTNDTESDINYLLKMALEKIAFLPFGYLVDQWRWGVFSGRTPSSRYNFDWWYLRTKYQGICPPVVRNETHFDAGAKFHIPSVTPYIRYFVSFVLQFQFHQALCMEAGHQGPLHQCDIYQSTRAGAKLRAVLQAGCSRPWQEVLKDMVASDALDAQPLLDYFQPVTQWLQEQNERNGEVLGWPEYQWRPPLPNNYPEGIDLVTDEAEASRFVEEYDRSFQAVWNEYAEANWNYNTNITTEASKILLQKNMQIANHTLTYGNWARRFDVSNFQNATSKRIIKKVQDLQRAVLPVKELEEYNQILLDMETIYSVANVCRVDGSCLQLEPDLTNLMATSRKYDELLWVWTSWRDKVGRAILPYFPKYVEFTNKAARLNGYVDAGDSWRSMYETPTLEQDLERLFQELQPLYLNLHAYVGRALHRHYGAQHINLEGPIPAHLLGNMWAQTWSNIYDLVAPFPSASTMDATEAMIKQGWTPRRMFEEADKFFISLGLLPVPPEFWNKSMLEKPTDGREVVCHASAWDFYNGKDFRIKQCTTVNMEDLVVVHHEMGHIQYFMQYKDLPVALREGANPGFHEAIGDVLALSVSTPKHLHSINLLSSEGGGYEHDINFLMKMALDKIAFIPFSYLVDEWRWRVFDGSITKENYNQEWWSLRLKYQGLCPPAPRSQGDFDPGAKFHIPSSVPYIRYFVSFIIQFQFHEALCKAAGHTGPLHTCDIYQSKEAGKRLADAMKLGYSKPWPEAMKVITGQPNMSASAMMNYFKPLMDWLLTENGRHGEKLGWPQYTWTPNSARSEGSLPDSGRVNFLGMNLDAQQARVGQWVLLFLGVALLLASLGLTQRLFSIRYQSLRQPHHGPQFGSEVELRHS
Description: (§1) ACE domain-specific inhibition studies were performed based on previously reported methods (Carmona et al., 2006 [57]; Lunow et al., 2015 [58]). Fluorescence resonance energy transfer (FRET) substrates, Abz-SDK(Dnp)P-OH and Abz-LFK(Dnp)-OH were used for the N-domain and C-domain, respectively. […] Briefly, 40 μL of assay buffer and 60 μL of the FRET substrate solutions were preincubated for 10 min at 37 °C, with the reaction started by adding 20 μL of diluted ACE solution (5 μL ACE + 15 μL 0.1 mol/L TRIS buffer) and fluorescence measured at λex/λem = 290/450 nm every minute at 37 °C for 30 min. The corresponding KM of the FRET substrates, determined using the Michaelis–Menten equation, was used as the substrate concentration of the FRET substrates used in percent inhibition studies. The inhibitory activity of 16 on both domains was determined as described above with the 40 μL solution containing the inhibitor (inhibitor in DMSO–Assay buffer, 1:9). The control samples, which correspond to 100% enzyme activity, were prepared by replacing the inhibitor solution with TRIS buffer. Dose–effect studies on 16 using the FRET substrates were used to determine the IC50 of this compound on both ACE domains. All experiments were performed in triplicates. The ACE-inhibitory activity was calculated using the following equation:(%) = (Ab − Aa) − (Cb − Ca)/(Ab − Aa) × 100(2) where Aa is the absorbance of control wells at 0 min; Ab is the absorbance of control wells at 15 min; Ca is the absorbance of the inhibitor wells at 0 min; and Cb is the absorbance of inhibitor wells at 15 min.

[2] = target: T2, N-domain of rabbit lung ACE (Oryctolagus cuniculus, UniProt P12822); test: ACE domain-specific inhibition, N-domain (FRET substrate Abz-SDK(Dnp)P-OH); assay type: biochemical; conditions: for Inhibition (%) ± SD, N-Domain: Abz-SDK(Dnp)P-OH [S] = 72 μM
T2 construct: on the C- and N-domain of a rabbit lung ACE using the FRET substrates; from tissue; host or cells: rabbit lung
T2 sequence (P12822 34-1310): T1 sequence (P12822 34-1310)
Description: as §1

ACE from rabbit lung = target: T3, ACE from rabbit lung (Oryctolagus cuniculus, UniProt P12822); test: ACE-inhibitory assay (ACE Activity Assay Kit, fluorescence); assay type: biochemical; conditions: for inhibition at 90 µM: read-out: Inhibition at 90 μM (%) ± SD
T3 construct: ACE from rabbit lung, A6778, Sigma-Aldrich, USA; purchased Sigma-Aldrich A6778; host or cells: rabbit lung (tissue-derived)
T3 sequence (P12822 34-1310): T1 sequence (P12822 34-1310)

Colo 205 = test: Antiproliferative MTT assay; assay type: cell-based, human; conditions: doxorubicin-sensitive cells; for IC50: read-out: IC50 (μM) ± SD, Colo 205
[3] = test system: Colo 320/MDR-LRP expressing ABCB1; test: Antiproliferative MTT assay; conditions: for IC50: Homo sapiens, COLO 320, 72 h, read-out: IC50 (μM) ± SD, Colo 320
[4] = test system: Colo 320/MDR-LRP expressing ABCB1
HIV transcription = test system: HIV transcription; set-up: method as in PMID 36975214; conditions: T cells; cited from earlier work
velvetleaf seeds = test system: velvetleaf seeds; set-up: method as in doi:10.1007/BF02266955; conditions: cited from earlier work

## bradykinin-potentiating peptide b [BPPb, reference compound]
[1]; inhibitor 200 nM
  Inhibition (%) ± SD, C-Domain: 83.20 ± 3.6%
[2]; inhibitor 200 nM
  Inhibition (%) ± SD, N-Domain: 5.2 ± 0.2%

## Oc1ccc(/C=C\c2cc(O)cc3c2C(c2cc(O)cc(O)c2)C(c2ccc(O)cc2)O3)cc1 (stereo not drawn) [Compound 13, cis-ε-viniferin]
ACE from rabbit lung; ACE from rabbit lung
  IC50: 18 ± 1.2 µM
ACE from rabbit lung
  inhibition at 90 µM: 95.5 ± 2.8%
Colo 205; Homo sapiens, COLO 205, 72 h
  IC50: > 100 µM
[3]
  IC50: > 100 µM

## kobophenol A [Compound 17]
ACE from rabbit lung; ACE from rabbit lung
  IC50: 14.8 ± 0.8 µM
ACE from rabbit lung; ACE from rabbit lung, 90 μM
  Inhibition at 90 μM (%) ± SD: 98.5 ± 1.2%
[4]
  IC50: > 100 µM
Colo 205; 72 h
  IC50: > 100 µM

## COc1cccc2c1C(=O)c1c(O)c3c(c(O)c1C2=O)C[C@@](O)(C(=O)CO)C[C@@H]3O[C@H]1C[C@H](N)[C@H](O)[C@H](C)O1 [Doxorubicin, reference compound]
Colo 205; Homo sapiens, COLO 205, 72 h
  IC50: 0.33 ± 0.03 µM
[3]
  IC50: 0.67 ± 0.06 µM

## Oc1ccc(C2Oc3cc(O)cc4c3C2c2cc(O)cc(O)c2C(c2ccc(O)cc2)C4C2c3cc(O)cc4c3C(c3cc(O)cc(O)c3C2c2ccc(O)cc2)C(c2ccc(O)cc2)O4)cc1 (single isomer, unassigned; (-)) [Compound 16, (–)-hopeaphenol]
ACE from rabbit lung; ACE from rabbit lung
  IC50: 7.7 ± 0.9 µM
ACE from rabbit lung; ACE from rabbit lung, 90 μM
  inhibition at 90 µM: 103 ± 1.5%
ACE from rabbit lung; Lineweaver-Burk, substrate Abz-Gly-Phe(NO2)-Pro
  type of ACE inhibition (enzyme-kinetic studies): mixed-type inhibition
[1]; C-domain versus N-domain IC50
  times lower affinity for the C-domain than for the N-domain: 10 times
[1]; inhibitor 10 μM
  Inhibition (%) ± SD, C-Domain: 18.17 ± 0.5%
[1]; inhibitor 50 μM
  Inhibition (%) ± SD, C-Domain: 23.39 ± 0.6%
[1]; rabbit lung ACE, FRET substrate Abz-LFK(Dnp)-OH
  IC50: > 300 µM
Colo 205; 72 h
  IC50 (μM) ± SD, Colo 205: notable antiproliferative activity
Colo 205; Homo sapiens, COLO 205, 72 h
  IC50: 1.59 ± 0.11 µM
[2]; inhibitor 10 μM
  Inhibition (%) ± SD, N-Domain: 42.41 ± 0.8%
[2]; inhibitor 50 μM
  Inhibition (%) ± SD, N-Domain: 55.74 ± 3.2%
[2]; rabbit lung ACE, FRET substrate Abz-SDK(Dnp)P-OH
  IC50: 35.7 ± 2.3 µM
HIV transcription
  inhibition of HIV transcription: selective inhibitor of HIV transcription
[3]
  IC50: 6.08 ± 0.24 µM
[3]; MTT, 72 h, doxorubicin-resistant cells expressing ABCB1
  IC50 (μM) ± SD, Colo 320: notable antiproliferative activity

## O=c1ccoc2cc(O)cc(O)c12 [Compound 22, 5,7-dihydroxychromone]
Velvetleaf seeds
  inhibition of germination: inhibited the germination of velvetleaf seeds

## Oc1ccc(/C=C/c2cc(O)cc3c2C(c2cc(O)cc(O)c2)C(c2ccc(O)cc2)O3)cc1 (stereo not drawn) [Compound 14, trans-ε-viniferin]
ACE from rabbit lung; ACE from rabbit lung
  IC50: 14 ± 0.7 µM
ACE from rabbit lung
  inhibition at 90 µM: 107 ± 1.1%
Colo 205; Homo sapiens, COLO 205, 72 h
  IC50: > 100 µM
[3]
  IC50: > 100 µM

## Oc1ccc(/C=C/c2cc(O)cc(O)c2)cc1 [Compound 12, trans-resveratrol]
[4]
  IC50 (μM) ± SD, Colo 320: notable antiproliferative activity
Colo 205; 72 h
  IC50 (μM) ± SD, Colo 205: notable antiproliferative activity
Colo 205; Homo sapiens, COLO 205, 72 h
  IC50: 48.3 ± 1.54 µM
[3]
  IC50: 40.4 ± 1.84 µM

## N.N.[Cl][Pt][Cl] [Cisplatin, reference compound]
Colo 205; 72 h
  IC50: 53.9 ± 3.92 µM

## Oc1ccc(/C=C\c2cc(O)cc3c2[C@H](c2cc(O)cc4c2[C@H](c2cc(O)cc(O)c2)[C@@H](c2ccc(O)cc2)O4)[C@@H](c2ccc(O)cc2)O3)cc1 [Compound 15, Z-miyabenol C]
ACE from rabbit lung; ACE from rabbit lung
  IC50: 15.2 ± 0.4 µM
ACE from rabbit lung; ACE from rabbit lung, 90 μM
  inhibition at 90 µM: 96.7 ± 6.3%
Colo 205; Homo sapiens, COLO 205, 72 h
  IC50: > 100 µM
[3]
  IC50: > 100 µM

Source: paper PMC11280411, “Phytochemical Investigation of Carex praecox Schreb. and ACE-Inhibitory Activity of Oligomer Stilbenes of the Plant” (Molecules, 2024)
